US6653455B1, “Crystallization of doxorubicin hydrochloride” (Mercian Corporation, priority 1998, dated 2003)
Counter-ions that a name gives are not always drawn. Marks after values point to notes of the source that are not given here.

What was measured:
Assay type in all cases: physicochemical
[1] = Solubility test (dissolving time in water); settings: 50 mg sample in 5 ml water, 25° C., about 600 rounds/minute stirring, time until completely dissolved; hydrochloride
Protocol: A beaker of 20 ml (minor diameter: 30 mm) was charged with 5 ml of water and then 50 mg of a DOX.HCl crystal sample, and the sample was stirred at 25° C. and about 600 rounds/minute by means of a magnetic stirrer (diameter 6 mm×length 10 mm). Time consumed until the sample was completely dissolved was measured wile observing the dissolving state every 30 seconds with naked eyes.
The solubility test described above was carried out for a DXR.USP standard product (Lot J) (average particle diameter: 28 μm) as comparison and Examples 2, 46,51, 55, 56, 57 and 58, and the results thereof are shown in Table III.

[2] = Hygroscopicity, cup method (weight change); settings: weight-increasing rate, 25° C., 50 to 60% RH, 15 minutes; crystals dried at 40° C. under vacuum; hydrochloride
Protocol: Determined by the following cup method. To be specific, about 15 to 20 mg of the sample was put in a cylindrical cup having a diameter of 6 mm and a depth of 6 mm and left standing at a fixed temperature (25° C.) and relative humidity (50 to 60% RH) for 15 minutes to measure a weight change, whereby the hygroscopicity was evaluated.
In the following respective examples, a weight-increasing rate of 0.40% or more is shown by an evaluation criterion that the hygroscopicity is large (−); a weight-increasing rate of 0.20% or more and less than 0.40% is shown by an evaluation criterion that the hygroscopicity is ;intermediate (±); and a weight-increasing rate of less than 0.20% is shown by an evaluation criterion that the hygroscopicity is small: (+).

[3] = Average particle diameter, microscopic method (Heywood circle-corresponding diameter); settings: 10 typical crystals on photograph, hydrochloride
Description: The average particle diameter is shown by a diameter of a circle having the same area as an injected area of the particle, a so-called Heywood diameter (circle-corresponding diameter) according to a microscopic method (injected image). A small amount of the crystals was put on a slide glass, and 1 to 2 drops of a hydrophilic surfactant (sesquioleic acid sorbitan) were fallen thereon to disperse them. It was photographed by means of a polarization microscope (photographing lens: 3.3 magnifications, objective lens: 20 magnifications) equipped with a photographing device. Optional 10 pieces of the typical crystals were selected on the photograph to measure a long diameter and a short diameter thereof An (projected) area of the particle was shown by long diameter×short diameter, and the particle diameter was shown by a diameter of a circle having the same area as that obtained above.

| Compound | Dissolving time [1] | Hygroscopicity [2] | Average particle diameter [3] | Average particle diameter ([3]; listed as DXR.USP standard product (Lot J)) |
| --- | --- | --- | --- | --- |
| COc1cccc2c1C(=O)c1c(O)c3c(c(O)c1C2=O)C[C@@](O)(C(=O)CO)C[C@@H]3O[C@H]1C[C@H](N)[C@H](O)[C@H](C)O1 [Example 51, doxorubicin hydrochloride] | 1.5 to 2 min | + (a weight-increasing rate of less than 0.20% is shown by an evaluation criterion that the hygroscopicity is small: (+)) | 73 μm |  |
| COc1cccc2c1C(=O)c1c(O)c3c(c(O)c1C2=O)C[C@@](O)(C(=O)CO)C[C@@H]3O[C@H]1C[C@H](N)[C@H](O)[C@H](C)O1 [Example 32, doxorubicin hydrochloride] |  | + (a weight-increasing rate of less than 0.20% is shown by an evaluation criterion that the hygroscopicity is small: (+)) | 34 μm |  |
| COc1cccc2c1C(=O)c1c(O)c3c(c(O)c1C2=O)C[C@@](O)(C(=O)CO)C[C@@H]3O[C@H]1C[C@H](N)[C@H](O)[C@H](C)O1 [Example 40, doxorubicin hydrochloride] |  | ± (a weight-increasing rate of 0.20% or more and less than 0.40% is shown by an evaluation criterion that the hygroscopicity is ;intermediate (±)) | 18 μm |  |
| COc1cccc2c1C(=O)c1c(O)c3c(c(O)c1C2=O)C[C@@](O)(C(=O)CO)C[C@@H]3O[C@H]1C[C@H](N)[C@H](O)[C@H](C)O1 [Example 34, doxorubicin hydrochloride] |  | ± (a weight-increasing rate of 0.20% or more and less than 0.40% is shown by an evaluation criterion that the hygroscopicity is ;intermediate (±)) | 23 μm |  |
| COc1cccc2c1C(=O)c1c(O)c3c(c(O)c1C2=O)C[C@@](O)(C(=O)CO)C[C@@H]3O[C@H]1C[C@H](N)[C@H](O)[C@H](C)O1 [Example 59, doxorubicin hydrochloride] |  | − (a weight-increasing rate of 0.40% or more is shown by an evaluation criterion that the hygroscopicity is large (−)) | <4 μm |  |
| COc1cccc2c1C(=O)c1c(O)c3c(c(O)c1C2=O)C[C@@](O)(C(=O)CO)C[C@@H]3O[C@H]1C[C@H](N)[C@H](O)[C@H](C)O1 [Example 45, doxorubicin hydrochloride] |  | + (a weight-increasing rate of less than 0.20% is shown by an evaluation criterion that the hygroscopicity is small: (+)) | 46 μm |  |
| COc1cccc2c1C(=O)c1c(O)c3c(c(O)c1C2=O)C[C@@](O)(C(=O)CO)C[C@@H]3O[C@H]1C[C@H](N)[C@H](O)[C@H](C)O1 [Example 19, doxorubicin hydrochloride] |  | ± (a weight-increasing rate of 0.20% or more and less than 0.40% is shown by an evaluation criterion that the hygroscopicity is ;intermediate (±)) | 17 μm |  |
| COc1cccc2c1C(=O)c1c(O)c3c(c(O)c1C2=O)C[C@@](O)(C(=O)CO)C[C@@H]3O[C@H]1C[C@H](N)[C@H](O)[C@H](C)O1 [Example 22, doxorubicin hydrochloride] |  | + (a weight-increasing rate of less than 0.20% is shown by an evaluation criterion that the hygroscopicity is small: (+)) | 47 μm |  |
| COc1cccc2c1C(=O)c1c(O)c3c(c(O)c1C2=O)C[C@@](O)(C(=O)CO)C[C@@H]3O[C@H]1C[C@H](N)[C@H](O)[C@H](C)O1 [Example 23, doxorubicin hydrochloride] |  | ± (a weight-increasing rate of 0.20% or more and less than 0.40% is shown by an evaluation criterion that the hygroscopicity is ;intermediate (±)) | 39 μm |  |
| COc1cccc2c1C(=O)c1c(O)c3c(c(O)c1C2=O)C[C@@](O)(C(=O)CO)C[C@@H]3O[C@H]1C[C@H](N)[C@H](O)[C@H](C)O1 [Example 30, doxorubicin hydrochloride] |  | + (a weight-increasing rate of less than 0.20% is shown by an evaluation criterion that the hygroscopicity is small: (+)) | 39 μm |  |
| COc1cccc2c1C(=O)c1c(O)c3c(c(O)c1C2=O)C[C@@](O)(C(=O)CO)C[C@@H]3O[C@H]1C[C@H](N)[C@H](O)[C@H](C)O1 [Example 21, doxorubicin hydrochloride] |  | + (a weight-increasing rate of less than 0.20% is shown by an evaluation criterion that the hygroscopicity is small: (+)) | 54 μm |  |
| COc1cccc2c1C(=O)c1c(O)c3c(c(O)c1C2=O)C[C@@](O)(C(=O)CO)C[C@@H]3O[C@H]1C[C@H](N)[C@H](O)[C@H](C)O1 [DXR.USP (comparison), doxorubicin hydrochloride] | 3-3.5* minute |  |  | 28 μm |
| COc1cccc2c1C(=O)c1c(O)c3c(c(O)c1C2=O)C[C@@](O)(C(=O)CO)C[C@@H]3O[C@H]1C[C@H](N)[C@H](O)[C@H](C)O1 [Example 49, doxorubicin hydrochloride] |  | + (a weight-increasing rate of less than 0.20% is shown by an evaluation criterion that the hygroscopicity is small: (+)) | 71 μm |  |
| COc1cccc2c1C(=O)c1c(O)c3c(c(O)c1C2=O)C[C@@](O)(C(=O)CO)C[C@@H]3O[C@H]1C[C@H](N)[C@H](O)[C@H](C)O1 [Example 44, doxorubicin hydrochloride] |  | + (a weight-increasing rate of less than 0.20% is shown by an evaluation criterion that the hygroscopicity is small: (+)) | 28 μm |  |
| COc1cccc2c1C(=O)c1c(O)c3c(c(O)c1C2=O)C[C@@](O)(C(=O)CO)C[C@@H]3O[C@H]1C[C@H](N)[C@H](O)[C@H](C)O1 [Example 16, doxorubicin hydrochloride] |  | ± (a weight-increasing rate of 0.20% or more and less than 0.40% is shown by an evaluation criterion that the hygroscopicity is ;intermediate (±)) | <4 μm |  |
| COc1cccc2c1C(=O)c1c(O)c3c(c(O)c1C2=O)C[C@@](O)(C(=O)CO)C[C@@H]3O[C@H]1C[C@H](N)[C@H](O)[C@H](C)O1 [Example 38, doxorubicin hydrochloride] |  | + (a weight-increasing rate of less than 0.20% is shown by an evaluation criterion that the hygroscopicity is small: (+)) | 28 μm |  |
| COc1cccc2c1C(=O)c1c(O)c3c(c(O)c1C2=O)C[C@@](O)(C(=O)CO)C[C@@H]3O[C@H]1C[C@H](N)[C@H](O)[C@H](C)O1 [Example 33, doxorubicin hydrochloride] |  | ± (a weight-increasing rate of 0.20% or more and less than 0.40% is shown by an evaluation criterion that the hygroscopicity is ;intermediate (±)) | 25 μm |  |
| COc1cccc2c1C(=O)c1c(O)c3c(c(O)c1C2=O)C[C@@](O)(C(=O)CO)C[C@@H]3O[C@H]1C[C@H](N)[C@H](O)[C@H](C)O1 [Example 13, doxorubicin hydrochloride] |  | ± (a weight-increasing rate of 0.20% or more and less than 0.40% is shown by an evaluation criterion that the hygroscopicity is ;intermediate (±)) | <4 μm |  |
| COc1cccc2c1C(=O)c1c(O)c3c(c(O)c1C2=O)C[C@@](O)(C(=O)CO)C[C@@H]3O[C@H]1C[C@H](N)[C@H](O)[C@H](C)O1 [Example 42, doxorubicin hydrochloride] |  | + (a weight-increasing rate of less than 0.20% is shown by an evaluation criterion that the hygroscopicity is small: (+)) | 34 μm |  |
| COc1cccc2c1C(=O)c1c(O)c3c(c(O)c1C2=O)C[C@@](O)(C(=O)CO)C[C@@H]3O[C@H]1C[C@H](N)[C@H](O)[C@H](C)O1 [Example 48, doxorubicin hydrochloride] |  | + (a weight-increasing rate of less than 0.20% is shown by an evaluation criterion that the hygroscopicity is small: (+)) | 89 μm |  |
| COc1cccc2c1C(=O)c1c(O)c3c(c(O)c1C2=O)C[C@@](O)(C(=O)CO)C[C@@H]3O[C@H]1C[C@H](N)[C@H](O)[C@H](C)O1 [Example 24, doxorubicin hydrochloride] |  | + (a weight-increasing rate of less than 0.20% is shown by an evaluation criterion that the hygroscopicity is small: (+)) | 51 μm |  |
| COc1cccc2c1C(=O)c1c(O)c3c(c(O)c1C2=O)C[C@@](O)(C(=O)CO)C[C@@H]3O[C@H]1C[C@H](N)[C@H](O)[C@H](C)O1 [Example 20, doxorubicin hydrochloride] |  | + (a weight-increasing rate of less than 0.20% is shown by an evaluation criterion that the hygroscopicity is small: (+)) | 7 μm |  |
